Patent US20250163006A1, “New Coolants, and Preparations Containing Same” (Symrise AG, priority 2022, published 2025)

The compounds below were run against T1, human TRPM8 receptor (Homo sapiens, UniProt Q7Z2W7) (assay: Assay on TRPM8 modulators: Ca2+-sensitive dye (Fluo-4) fluorescence in HEK293-TRPM8 test cells). Settings: HEK293 cells recombinantly expressing human TRPM8.
T1 construct: expressed in transfected cells; host or cells: HEK293, stably transfected, tetracycline-inducible expression
Type: cell-based
Design: relative TRPM8 activation: concentration or dose not given beside the values
From the text: The starting point for cloning the human TRPM8 receptor is an LnCaP cDNA bank. This is commercially available (e.g. BioChain, Hayward, USA) or can be produced from the andro gene-sensitive human prostate adenocarcinoma cell line LnCaP (e.g. ATCC, CRL1740 or ECACC, 891 1021 1) using standard kits.
The coding TRPM8 sequence (see e.g. http://www. ncbi.nlm.nih.gov/entrez/viewer.fcgi?db=nuccore&id=109689694) can be PCR-amplified and cloned using standard methods. The human TRPM8 gene isolated in this way was used to produce the plasmid plnd_M8. Alternatively, the TRPM8 gene can also be produced synthetically.
A stably transfected HEK293 cell line was produced as a test cell system using human TRPM8 DNA. Preference was given to HEK293, which offers the possibility of inducing TRPM8 expression using tetracycline via the plasmid introduced.
A test similar to the test already described in the literature by Behrendt H. J. et al, Br. J. Pharmacol. 141, 2004, 737-745, is performed. The agonization or antagonization of the receptor can be quantified using a Ca^2+-sensitive dye (e.g. FURA, Fluo-4 etc.). Agonists alone cause an increase in the Ca^2+ signal; antagonists cause a reduction in the Ca^2+ signal in the presence of e.g. menthol (detected in each case using the Fluo-4 dye, which has different fluorescence properties due to Ca^2+ ions).
First, a fresh culture of transformed HEK cells is prepared in cell culture flasks in the usual way. The HEK293-TRPM8 test cells are detached from the cell culture flasks using trypsin and 40,000 cells/well are seeded with 100 μl medium in 96-well plates (Greiner #655948 poly-D-lysine-coated). To induce the TRPM8 receptor, tetracycline is added to the growth medium (DMEM/HG, 10% FCS tetracycline-free, 4 mM L-glutamine, 15 μg/ml blasticidin, 100 μg/ml hygromycin B, 1 μg/ml tetracycline).
On the following day, the cells are loaded with Fluo-4AM dye and the test is performed. Proceed as follows: Addition of 100 μl/well staining solution Ca-4 kit (RB 141, Molecular Devices) to each 100 μl medium (DMEM/HG, 10% FCS tetracycline-free, 4 mM L-glutamine, 15 μg/ml blasticidin, 100 μg/ml hygromycin B, 1 μg/ml tetracycline).
Incubation in incubator, 30 minutes/37° C./5% CO2, 30 minutes/RT.
Preparation of the test substances (different concentrations in 200 μl HBSS buffer), as well as positive controls (different concentrations of menthol, icilin or lonomycin in 200 μl HBSS buffer) and negative controls (only 200 μl HBSS buffer) Addition of the test substances in quantities of 50 μl/well and measurement of the fluorescence change (e.g. in the assay device FLIPR, Molecular Devices or NovoStar, BMG) at 485 nm excitation, 520 nm emission, and evaluation of the potency of the different substances/concentrations and determination of the ECG. e.g. in the FLIPR assay device, Molecular Devices or NovoStar, BMG) at 485 nm excitation, 520 nm emission, and evaluation of the potency of the various substances/concentrations and determination of the EC50 values.
The test substances are used in triplicates in concentrations of 0.1-200 μM in the assay. Normally, the compounds are kept ready in DMSO solutions and diluted down to a maximum DMSO concentration of 2% for the assay.
The activity of the active substances in relation to activation of the TRPM8 channel is determined using the assay described. This is done in a concentration-dependent manner. For each active substance, 6 to 10 concentrations are measured as standard. A mathematical method (4-parameter or 5-parameter logistic curve fitting) can be used to determine the EC50 value as the inflection point of the sigmoidal curve from the activity values determined. These are standard biochemical methods that are familiar to experts.

T1 sequence (Q7Z2W7 whole entry): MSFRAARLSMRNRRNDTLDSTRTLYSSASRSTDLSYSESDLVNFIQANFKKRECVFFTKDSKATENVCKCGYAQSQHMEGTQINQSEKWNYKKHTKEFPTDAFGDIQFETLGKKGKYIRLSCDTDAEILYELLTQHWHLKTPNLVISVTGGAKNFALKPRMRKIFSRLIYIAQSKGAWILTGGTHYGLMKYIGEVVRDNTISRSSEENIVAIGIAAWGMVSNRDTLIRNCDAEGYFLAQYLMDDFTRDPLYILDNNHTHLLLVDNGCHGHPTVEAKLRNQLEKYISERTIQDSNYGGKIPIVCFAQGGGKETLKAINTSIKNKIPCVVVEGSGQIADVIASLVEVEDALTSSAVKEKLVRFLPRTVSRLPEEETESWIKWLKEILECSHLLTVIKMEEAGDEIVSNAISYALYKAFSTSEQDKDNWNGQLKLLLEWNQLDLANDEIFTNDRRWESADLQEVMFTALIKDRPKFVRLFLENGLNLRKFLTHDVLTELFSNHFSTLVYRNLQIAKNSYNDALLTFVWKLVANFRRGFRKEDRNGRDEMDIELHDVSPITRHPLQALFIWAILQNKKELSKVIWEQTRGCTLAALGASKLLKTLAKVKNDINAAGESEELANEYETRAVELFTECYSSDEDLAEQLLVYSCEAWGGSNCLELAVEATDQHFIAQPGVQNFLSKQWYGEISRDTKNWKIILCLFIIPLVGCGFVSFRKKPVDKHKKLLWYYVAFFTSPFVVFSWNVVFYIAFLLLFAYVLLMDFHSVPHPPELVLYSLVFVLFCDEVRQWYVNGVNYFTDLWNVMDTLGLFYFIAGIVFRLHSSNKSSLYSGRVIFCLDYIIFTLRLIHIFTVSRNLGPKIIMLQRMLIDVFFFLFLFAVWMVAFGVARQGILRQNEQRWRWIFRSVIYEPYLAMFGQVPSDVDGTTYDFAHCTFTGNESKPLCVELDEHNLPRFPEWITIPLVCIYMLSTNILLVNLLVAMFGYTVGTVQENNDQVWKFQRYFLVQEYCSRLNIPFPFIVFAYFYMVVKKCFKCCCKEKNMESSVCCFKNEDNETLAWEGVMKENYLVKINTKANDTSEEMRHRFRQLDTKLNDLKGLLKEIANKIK

Row | relative TRPM8 activation | Compound
1 | −5% | CNC(=O)CSc1nc(-c2ccc(OC)cc2)c(-c2ccc(OC)cc2)o1 [Compound A-72, 2-[4,5-bis(4-methoxyphenyl)oxazol-2-yl]sulfanyl-N-methyl-acetamide]
2 | 24% | O=C(CCc1nc(-c2ccccc2)c(-c2ccccc2)o1)C1CC1 [Compound A-31, 1-cyclopropyl-3-(4,5-diphenyloxazol-2-yl)propan-1-one]
3 | −2% | CNC(=O)C(C)Sc1nc(-c2ccc(OC)cc2)c(-c2ccc(OC)cc2)o1 (stereo not drawn) [Compound A-69, 2-[4,5-bis(4-methoxyphenyl)oxazol-2-yl]sulfanyl-N-methyl-propanamide]
4 | 40% | CCCCSc1nnc(-c2ccccc2)c(-c2ccccc2)n1 [Compound B-31, 3-butylsulfanyl-5,6-diphenyl-1,2,4-triazine]
5 | 1% | CNC(=O)C(C)Sc1nnc(C)c(C)n1 (stereo not drawn) [Compound B-60, 2-[(5,6-dimethyl-1,2,4-triazin-3-yl)sulfanyl]-N-methyl-propanamide]
6 | 2% | CCC(=O)C(C)Sc1nc(-c2ccccc2)c(-c2ccccc2)o1 (stereo not drawn) [Compound A-48, 2-(4,5-diphenyloxazol-2-yl) sulfanylpentan-3-one]
7 | 75% | CC(C)NC(=O)CSc1nc(-c2ccccc2)c(-c2ccccc2)o1 [Compound A-19, 2-(4,5-diphenyloxazol-2-yl)sulfanyl-N-isopropyl-acetamide]
8 | 23% | CNC(=O)CCc1nc(-c2ccc(C)cc2)c(-c2ccc(C)cc2)o1 [Compound A-32, 3-[4,5-bis (p-tolyl)oxazol-2-yl]-N-methyl-propanamide]
9 | 4% | CC(Sc1nnc(-c2ccccc2)c(-c2ccccc2)n1)C(=O)NCc1cccs1 (stereo not drawn) [Compound B-48, 2-[(5,6-diphenyl-1,2,4-triazin-3-yl)sulfanyl]-N-(2-thienylmethyl) propanamide]
10 | −1% | COC(=O)NCCc1nc(-c2ccccc2)c(-c2ccccc2)o1 [Compound A-63, methyl N-[2-(4,5-diphenyloxazol-2-yl)ethyl]carbamate]
11 | 2% | CNC(=O)C(C)Sc1nc(-c2ccccc2)c(-c2ccccc2)[nH]1 (stereo not drawn) [Compound A-47, 2-[(4,5-diphenyl-1H-imidazol-2-yl)sulfanyl]-N-methyl-propanamide]
12 | −1% | O=C(CSc1ncco1)NC1CC1 [Compound A-66, N-cyclopropyl-2-oxazol-2-ylsulfanyl-acetamide]
13 | 5% | CNC(=O)C(C)Sc1nnc(-c2ccc(O)cc2)c(-c2ccc(O)cc2)n1 (stereo not drawn) [Compound B-45, 2-[[5,6-bis(4-hydroxyphenyl)-1,2,4-triazin-3-yl]sulfanyl]-N-methyl-propanamide]
14 | 1% | CC(C)C(=O)CSc1nc(-c2ccccc2)c(-c2ccccc2)o1 [Compound A-51, 1-(4,5-diphenyloxazol-2-yl)sulfanyl-3-methyl-butan-2-one]
15 | 41% | COCCSc1nnc(-c2ccccc2)c(-c2ccccc2)n1 [Compound B-30, 3-(2-methoxyethyl-sulfanyl)-5,6-diphenyl-1,2,4-triazine]
16 | 2% | O=C(COc1nnc(-c2ccccc2)c(-c2ccccc2)n1)NC1CC1 [Compound B-53, N-cyclopropyl-2-[(5,6-diphenyl-1,2,4-triazin-3-yl)oxy]acetamide]
17 | 3% | c1ccc(-c2nc(C3CCCCN3)oc2-c2ccccc2)cc1 (stereo not drawn) [Compound A-44, 4,5-diphenyl-2-(2-piperidyl)oxazole]
18 | 56% | CNC(=O)CCSc1nnc(-c2ccccc2)c(-c2ccccc2)n1 [Compound B-26, 3-[(5,6-diphenyl-1,2,4-triazin-3-yl)sulfanyl]-N-methyl-propanamide]
19 | 2% | NC(=O)Nc1nnc(-c2ccccc2)c(-c2ccccc2)n1 [Compound B-56, (5,6-diphenyl-1,2,4-triazin-3-yl)urea]
20 | 3% | c1ccc(CSc2nnc(-c3ccccc3)c(-c3ccccc3)n2)cc1 [Compound B-49, 3-benzylsulfanyl-5,6-diphenyl-1,2,4-triazine]
21 | 73% | CN(C)C(=O)CSc1cnc(-c2ccccc2)c(-c2ccccc2)n1 [Compound B-23, 2-(5,6-diphenylpyrazin-2-yl)sulfanyl-N,N-dimethyl-acetamide]
22 | 6% | CNC(=O)CNc1nnc(-c2ccccc2)c(-c2ccccc2)n1 [Compound B-43, 2-[(5,6-diphenyl-1,2,4-triazin-3-yl)amino]-N-methyl-acetamide]
23 | 25% | CCC(=O)CSc1nnc(-c2ccccc2)c(-c2ccccc2)n1 [Compound B-33, 1-[(5,6-diphenyl-1,2,4-triazin-3-yl)sulfanyl]butan-2-one]
24 | −2% | COCC(C)NC(=O)CSc1nc(-c2ccccc2)c(-c2ccccc2)o1 (stereo not drawn) [Compound A-67, 2-(4,5-diphenyloxazol-2-yl)sulfanyl-N-(2-methoxy-1-methyl-ethyl)acetamide]
25 | 1% | CCCC(C)NC(=O)CSc1nc(-c2ccccc2)c(-c2ccccc2)o1 (stereo not drawn) [Compound A-52, 2-(4,5-diphenyloxazol-2-yl)sulfanyl-N-(1-methylbutyl) acetamide]
26 | 2% | CNC(=O)CCSc1ncco1 [Compound A-45, N-methyl-3-oxazol-2-ylsulfanyl-propanamide]
27 | 13% | CNC(=O)/C=C/c1nc(-c2ccccc2)c(-c2ccccc2)o1 [Compound A-35, (E)-3-(4,5-diphenyloxazol-2-yl)-N-methyl-prop-2-enamide]
28 | 36% | CCN(CC)C(=O)CSc1nc(-c2ccccc2)c(-c2ccccc2)o1 [Compound A-29, 2-(4,5-diphenyloxazol-2-yl)sulfanyl-N,N-diethyl-acetamide]
29 | 3% | c1ccc(-c2nnc(NCCC3CC3)nc2-c2ccccc2)cc1 [Compound B-50, N-(2-cyclopropylethyl)-5,6-diphenyl-1,2,4-triazin-3-amine]
30 | 87% | CC(Sc1nnc(-c2ccccc2)c(-c2ccccc2)n1)C(=O)NC1CCCC1 (stereo not drawn) [Compound B-22, N-cyclopentyl-2-[(5,6-diphenyl-1,2,4-triazin-3-yl)sulfanyl]propanamide]

Same assay, conditions: TRPM8 activation, HEK293-TRPM8 cells, 6 to 10 concentrations, logistic curve fitting; read-out: EC50 value

Row | EC50 | Compound
31 | ≤ 1000 nM | CSCC(=O)N1CCCCC1c1nc(-c2ccc(C)cc2)co1 (stereo not drawn) [Compound A-08, 2-methylsulfanyl-1-[2-[4-(p-tolyl)oxazol-2-yl]-1-piperidyl] ethanone]
32 | ≤ 1000 nM | CNC(=O)CSc1cnc(-c2ccccc2)c(-c2ccccc2)n1 [Compound B-04, 2-(5,6-diphenylpyrazin-2-yl)sulfanyl-N-methyl-acetamide]

Same assay, conditions: Table 5; HEK293-TRPM8 cells; read-out: TRPM8 EC50

Row | EC50 | Compound
33 | 370 nM | CNC(=O)CSc1cnc(-c2ccccc2)c(-c2ccccc2)n1 [Compound B-04, 2-(5,6-diphenylpyrazin-2-yl)sulfanyl-N-methyl-acetamide]

Same assay, conditions: Table 6; HEK293-TRPM8 cells; read-out: TRPM8 EC50

Row | EC50 | Compound
34 | 110 nM | CSCC(=O)N1CCCCC1c1nc(-c2ccc(C)cc2)co1 (stereo not drawn) [Compound A-08, 2-methylsulfanyl-1-[2-[4-(p-tolyl)oxazol-2-yl]-1-piperidyl] ethanone]

Same assay, conditions: Table 7; HEK293-TRPM8 cells; read-out: TRPM8 EC50

Row | EC50 | Compound
35 | 370 nM | CNC(=O)CSc1cnc(-c2ccccc2)c(-c2ccccc2)n1 [Compound B-04, 2-(5,6-diphenylpyrazin-2-yl)sulfanyl-N-methyl-acetamide]

Same assay, conditions: Table 8; HEK293-TRPM8 cells; read-out: TRPM8 EC50

Row | EC50 | Compound
36 | 110 nM | CSCC(=O)N1CCCCC1c1nc(-c2ccc(C)cc2)co1 (stereo not drawn) [Compound A-08, 2-methylsulfanyl-1-[2-[4-(p-tolyl)oxazol-2-yl]-1-piperidyl] ethanone]
